Target: T1, KMO mouse enzyme (Mus musculus, UniProt Q91WN4)
T1 construct: KMO enzyme prepared at Evotec from mouse liver (4-6 weeks old) via mitochondria isolation; from tissue; host or cells: mouse liver (4-6 weeks old), mitochondria isolation, prepared at Evotec
Assay: KMO mouse enzyme assay: L-Kynurenine hydroxylation to 3-Hydroxy-Kynurenine monitored by LC/MS (MRM)
Format: biochemical
Details: compound at 10 μM, KMO enzyme from mouse liver mitochondria; for inhibition at 10 µM: read-out: INH.Mouse @ 10 μM
Procedure: A method of monitoring L-Kynurenine (KYN) hydroxylation to form 3-Hydroxy-Kynurenine (3OH-KYN) by LC/MS is described. Product is quantified by multiple reaction monitoring (MRM method).
• Compound: Stock concentrations: 10 mM in 100% DMSO • Enzyme: KMO enzyme prepared at Evotec from mouse liver (4-6 weeks old) via mitochondria isolation as described in the literature • Substrate: L-Kynurenine (Sigma: Cat# K3750, stock concentration: 10 mM in 100 mM potassium phosphate buffer, pH 7.4) Assay Conditions: […]

T1 sequence (Q91WN4 whole entry): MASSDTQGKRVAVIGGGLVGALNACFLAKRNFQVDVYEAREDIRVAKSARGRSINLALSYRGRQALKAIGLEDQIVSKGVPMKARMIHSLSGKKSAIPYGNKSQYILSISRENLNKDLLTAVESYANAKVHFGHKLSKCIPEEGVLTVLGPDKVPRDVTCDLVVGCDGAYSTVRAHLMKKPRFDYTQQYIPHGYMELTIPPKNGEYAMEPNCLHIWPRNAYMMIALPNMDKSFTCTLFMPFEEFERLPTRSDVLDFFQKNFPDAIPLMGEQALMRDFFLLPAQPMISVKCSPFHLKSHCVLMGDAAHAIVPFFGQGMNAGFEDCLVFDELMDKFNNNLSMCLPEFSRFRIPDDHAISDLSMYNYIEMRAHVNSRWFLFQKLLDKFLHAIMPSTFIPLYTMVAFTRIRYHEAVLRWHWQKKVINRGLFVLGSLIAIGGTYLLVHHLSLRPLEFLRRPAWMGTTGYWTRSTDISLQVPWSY

Structure (SMILES)	inhibition at 10 µM [%]	INH.Mouse @ 10 μM
O=C(Nc1cncnc1)c1cc(-c2cccc(Cl)c2)ccn1 [4-(3-Chloro-phenyl)-pyridine-2-carboxylic acid pyrimidin-5-ylamide]	60.8	–
COC(=O)c1cc(-c2ccc(F)cc2F)ncn1 [6-(2,4-Difluoro-phenyl)-pyrimidine-4-carboxylic acid methyl ester]	100	–
O=C(Nc1cccnc1)c1cc(-c2cccc(Cl)c2)ncn1 [6-(3-Chloro-phenyl)-pyrimidine-4-carboxylic acid pyridin-3-ylamide]	98.6	–
O=C(Nc1cccnc1)c1cc(-c2cc(Cl)cc(Cl)c2)ncn1 [6-(3,5-Dichloro-phenyl)-pyrimidine-4-carboxylic acid pyridin-3-ylamide]	72.2	–
O=C(c1cc(-c2cccc(Cl)c2)ncn1)N1CCCC1 [[6-(3-Chloro-phenyl)-pyrimidin-4-yl]-pyrrolidin-1-yl-methanone]	90.5	–
O=C1CN(C(=O)c2cc(-c3cccc(Cl)c3)ncn2)CCN1 [4-[6-(3-Chloro-phenyl)-pyrimidine-4-carbonyl]-piperazin-2-one]	100	–
O=C(NCc1cccnc1)c1cc(-c2cccc(Cl)c2)ncn1 [6-(3-Chloro-phenyl)-pyrimidine-4-carboxylic acid (pyridin-3-ylmethyl)-amide]	96.7	–
O=C(Nc1cncnc1)c1cc(-c2ccc(F)c(F)c2)ncn1 [6-(3,4-Difluoro-phenyl)-pyrimidine-4-carboxylic acid pyrimidin-5-ylamide]	100	–
O=C(c1cc(-c2cccc(Cl)c2)ccn1)N1CCc2ccccc21 [[4-(3-Chloro-phenyl)-pyridin-2-yl]-(2,3-dihydro-indol-1-yl)-methanone]	100	–
COC(=O)c1cc(-c2cc(Cl)ccc2F)ncn1 [6-(5-Chloro-2-fluoro-phenyl)-pyrimidine-4-carboxylic acid methyl ester]	100	–
COC(=O)c1cc(-c2cccc(Cl)c2)nc(C)n1 [6-(3-Chloro-phenyl)-2-methyl-pyrimidine-4-carboxylic acid methyl ester]	100	–
COC(=O)c1cc(-c2cncc(Cl)c2)ncn1 [6-(5-Chloro-pyridin-3-yl)-pyrimidine-4-carboxylic acid methyl ester]	93.2	–
COc1cncc(NC(=O)c2cc(-c3cc(Cl)cc(Cl)c3)ncn2)c1 [6-(3,5-Dichloro-phenyl)-pyrimidine-4-carboxylic acid (5-methoxy-pyridin-3-yl)-amide]	54.8	–
COC(=O)c1cc(-c2ccccc2)ncn1 [6-Phenyl-pyrimidine-4-carboxylic acid methyl ester]	100	–
CN(C(=O)c1cc(-c2cccc(Cl)c2)ncn1)c1ccccc1 [6-(3-Chloro-phenyl)-pyrimidine-4-carboxylic acid methyl-phenyl-amide]	100	–
CC(C)NC(=O)c1cc(-c2cccc(Cl)c2)ncn1 [6-(3-Chloro-phenyl)-pyrimidine-4-carboxylic acid isopropylamide]	100	–
CN(C(=O)c1cc(-c2cccc(Cl)c2)ncn1)c1ccc2c(c1)OC(F)(F)O2 [6-(3-Chloro-phenyl)-pyrimidine-4-carboxylic acid (2,2-difluoro-benzo[1,3]dioxol-5-yl)-methyl-amide]	98.7	–
O=C(c1cc(-c2cccc(Cl)c2)ncn1)N1Cc2ccccc2C1 [[6-(3-Chloro-phenyl)-pyrimidin-4-yl]-(1,3-dihydro-isoindol-2-yl)-methanone]	100	–
CN(C)C(=O)c1cc(-c2cccc(Cl)c2)ncn1 [6-(3-Chloro-phenyl)-pyrimidine-4-carboxylic acid dimethylamide]	100	–

The remaining lines, values ahead:

inhibition at 10 µM [%]	INH.Mouse @ 10 μM	Structure (SMILES)
91	–	COc1ccncc1NC(=O)c1cc(-c2cccc(Cl)c2)ncn1 [6-(3-Chloro-phenyl)-pyrimidine-4-carboxylic acid (4-methoxy-pyridin-3-yl)-amide]
84.2	–	Cc1ncccc1NC(=O)c1cc(-c2ccc(Cl)c(Cl)c2)ncn1 [6-(3,4-Dichloro-phenyl)-pyrimidine-4-carboxylic acid (2-methyl-pyridin-3-yl)-amide]
51.2	–	CS(=O)(=O)Nc1cc(-c2ccc(Cl)c(Cl)c2)ncn1 [N-[6-(3,4-Dichloro-phenyl)-pyrimidin-4-yl]-methanesulfonamide]
100	–	O=C(Nc1ccccn1)c1cc(-c2cccc(Cl)c2)ncn1 [6-(3-Chloro-phenyl)-pyrimidine-4-carboxylic acid pyridin-2-ylamide]
97.1	–	COc1cccc(NC(=O)c2cc(-c3cccc(Cl)c3)ncn2)c1 [6-(3-Chloro-phenyl)-pyrimidine-4-carboxylic acid (3-methoxy-phenyl)-amide]
100	–	Cc1ccc(NC(=O)c2cc(-c3ccc(Cl)c(Cl)c3)ncn2)cc1 [6-(3,4-Dichloro-phenyl)-pyrimidine-4-carboxylic acid p-tolylamide]
93.4	–	COc1ccc(NC(=O)c2cc(-c3cccc(Cl)c3)ncn2)cn1 [6-(3-Chloro-phenyl)-pyrimidine-4-carboxylic acid (6-methoxy-pyridin-3-yl)-amide]
100	–	O=C(c1cc(-c2ccc(Cl)c(Cl)c2)ncn1)N1CCc2cc(F)ccc21 [[6-(3,4-Dichloro-phenyl)-pyrimidin-4-yl]-(5-fluoro-2,3-dihydro-indol-1-yl)-methanone]
–	100.0	O=C(c1cc(-c2ccc(Cl)c(Cl)c2)ncn1)N1CC2(CC2)c2ccccc21 [[6-(3,4-Dichloro-phenyl)-pyrimidin-4-yl]-(1′,2′-dihydro-spiro[cyclopropane-1,3′-[3H]indol]-1′)-methanone]
96.6	–	Cc1cccc(NC(=O)c2cc(-c3cccc(Cl)c3)ncn2)c1 [6-(3-Chloro-phenyl)-pyrimidine-4-carboxylic acid m-tolylamide]
85.6	–	Cc1ncc(NC(=O)c2cc(-c3ccc(Cl)c(Cl)c3)ncn2)cn1 [6-(3,4-Dichloro-phenyl)-pyrimidine-4-carboxylic acid (2-methyl-pyrimidin-5-yl)-amide]
85.3	–	Cc1ccc(NC(=O)c2cc(-c3cccc(Cl)c3)ncn2)cn1 [6-(3-Chloro-phenyl)-pyrimidine-4-carboxylic acid (6-methyl-pyridin-3-yl)-amide]
100	–	Cn1cc(NC(=O)c2cc(-c3ccc(Cl)c(Cl)c3)ncn2)cn1 [6-(3,4-Dichloro-phenyl)-pyrimidine-4-carboxylic acid (1-methyl-1H-pyrazol-4-yl)-amide]
96.8	–	Cc1ccc(NC(=O)c2cc(-c3ccc(Cl)c(Cl)c3)ncn2)c(C)n1 [6-(3,4-Dichloro-phenyl)-pyrimidine-4-carboxylic acid (2,6-dimethyl-pyridin-3-yl)-amide]
100	–	Cc1nnc(NC(=O)c2cc(-c3cccc(Cl)c3)ncn2)o1 [6-(3-Chloro-phenyl)-pyrimidine-4-carboxylic acid (5-methyl-[1,3,4]oxadiazol-2-yl)-amide]
95.5	–	O=C(Nc1cncnc1)c1cc(-c2ccc(Cl)c(Cl)c2)ncn1 [6-(3,4-Dichloro-phenyl)-pyrimidine-4-carboxylic acid pyrimidin-5-ylamide]
100	–	O=C(Nc1ccccn1)c1cc(-c2ccc(Cl)c(Cl)c2)ncn1 [6-(3,4-Dichloro-phenyl)-pyrimidine-4-carboxylic acid pyridin-2-ylamide]

From patent US9145373B2, “Certain kynurenine-3-monooxygenase inhibitors, pharmaceutical compositions, and methods of use thereof” (CHDI FOUNDATION, INC., priority 2008, dated 2015)
